According to patent US8519128B2, “Pyripyropene derivatives having an ACAT2-inhibiting activity” (The Kitasato Institute, priority 2007, dated 2013):

Target: T1, ACAT 2 (Mus musculus, UniProt O88908)
T1 construct: The source of ACAT 2 enzyme used was a membrane fraction derived from mouse liver microsome; from tissue; host or cells: mouse liver (microsome fraction)
T1 sequence (O88908 1-525): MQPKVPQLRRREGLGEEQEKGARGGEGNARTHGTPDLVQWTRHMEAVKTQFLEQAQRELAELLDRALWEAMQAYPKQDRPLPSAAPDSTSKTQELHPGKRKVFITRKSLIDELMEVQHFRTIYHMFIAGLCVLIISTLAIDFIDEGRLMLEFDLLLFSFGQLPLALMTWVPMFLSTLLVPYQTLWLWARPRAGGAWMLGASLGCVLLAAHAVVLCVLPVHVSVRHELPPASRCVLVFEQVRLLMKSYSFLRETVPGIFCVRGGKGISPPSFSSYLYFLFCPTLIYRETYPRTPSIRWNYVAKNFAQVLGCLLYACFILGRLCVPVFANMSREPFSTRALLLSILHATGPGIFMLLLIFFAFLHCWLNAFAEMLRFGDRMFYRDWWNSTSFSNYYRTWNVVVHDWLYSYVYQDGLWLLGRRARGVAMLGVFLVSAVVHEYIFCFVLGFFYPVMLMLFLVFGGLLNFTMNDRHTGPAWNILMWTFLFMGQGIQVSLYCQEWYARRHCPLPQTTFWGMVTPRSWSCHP
Test: ACAT-inhibiting activity, mouse liver microsome membrane fraction, [14C]oleoyl-CoA
Assay type: biochemical
Settings: for IC50: mouse liver microsome, 5 minutes at 37° C.; for Specific activity: (inhibitory activity of test compound)/(inhibitory activity of pyripyropene A): relative to pyripyropene A
Experimental: The source of ACAT 2 enzyme used was a membrane fraction derived from mouse liver microsome. Mouse liver was homogenized in buffer solution A (50 mM Tris-HCl (pH 7.8), 1 mM ethylenediamine tetraacetate, and 1 mM phenylmethanesulfonyl fluoride) using a homogenizer of the Potter type (Tokyo-RIKO). The homogenate was centrifuged at 12000×g, and the supernatant was ultracentrifuged at 100000×g. The sediment was taken as a microsome fraction, and this fraction was adjusted to have a protein concentration of 5 mg/ml using buffer solution A.
The chloroform layer was evaporated to dryness and was used to spot a thin layer chromatography plate (silica gel plate, Merck, 0.5 mm thickness). Elution for separation was carried out using a solvent of hexane/diethyl ether/acetic acid (70:30:1, v/v).

SMILES | IC50 [nM] | Specific activity: (inhibitory activity of test compound)/(inhibitory activity of pyripyropene A)
CC(=O)OCC1(C)C2C[C@H](OC(=O)c3cccc(Br)c3)[C@@]3(C)Oc4cc(-c5cccnc5)oc(=O)c4[C@H](O)C3[C@@]2(C)CC[C@@H]1OC(C)=O (stereo partly shown) [PRD 026, 7-m-bromobenzoyl-7-deacetylpyripyropene A] | < 10 | ++++ (100 > specific activity > 50)
CC(=O)OCC1(C)C2C[C@H](OC(=O)c3ccccc3)[C@@]3(C)Oc4cc(-c5cccnc5)oc(=O)c4[C@H](O)C3[C@@]2(C)CC[C@@H]1OC(C)=O (stereo partly shown) [PRD 027, 7-benzoyl-7-deacetylpyripyropene A] | 10 to 100 | +++ (50 > specific activity > 10)
CC(=O)OCC1(C)C2C[C@H](OC(=O)c3ccccc3F)[C@@]3(C)Oc4cc(-c5cccnc5)oc(=O)c4[C@H](O)C3[C@@]2(C)CC[C@@H]1OC(C)=O (stereo partly shown) [PRD 028, 7-o-fluorobenzoyl-7-deacetylpyripyropene A] | 10 to 100 | +++ (50 > specific activity > 10)
CC(=O)OCC1(C)C2C[C@H](OC(=O)c3ccc([N+](=O)[O-])cc3)[C@@]3(C)Oc4cc(-c5cccnc5)oc(=O)c4[C@H](O)C3[C@@]2(C)CC[C@@H]1OC(C)=O (stereo partly shown) [PRD 029, 7-p-nitrobenzoyl-7-deacetylpyripyropene A] | 10 to 100 | + (5 > specific activity > 1)
CC(=O)OCC1(C)C2C[C@H](OC(=O)c3ccc(N=[N+]=[N-])cc3)[C@@]3(C)Oc4cc(-c5cccnc5)oc(=O)c4[C@H](O)C3[C@@]2(C)CC[C@@H]1OC(C)=O (stereo partly shown) [PRD 030, 7-O-p-azidebenzoyl-7-deacetylpyripyropene A] | 10 to 100 | ++ (10 > specific activity > 5)
CC(=O)OCC1(C)C2C[C@H](OC(=O)c3ccc(O)cc3)[C@@]3(C)Oc4cc(-c5cccnc5)oc(=O)c4[C@H](O)C3[C@@]2(C)CC[C@@H]1OC(C)=O (stereo partly shown) [PRD 031, 7-p-hydroxybenzoyl-7-deacetylpyripyropene A] | 100 to 1000 | + (5 > specific activity > 1)
CC(=O)OCC1(C)C2C[C@H](OC(=O)c3ccc(N)cc3)[C@@]3(C)Oc4cc(-c5cccnc5)oc(=O)c4[C@H](O)C3[C@@]2(C)CC[C@@H]1OC(C)=O (stereo partly shown) [PRD 032, 7-p-aminobenzoyl-7-deacetylpyripyropene A] | 100 to 1000 | + (5 > specific activity > 1)
CC(=O)OCC1(C)C2C[C@H](OC(=O)c3ccc(-c4ccccc4)cc3)[C@@]3(C)Oc4cc(-c5cccnc5)oc(=O)c4[C@H](O)C3[C@@]2(C)CC[C@@H]1OC(C)=O (stereo partly shown) [PRD 034, 7-p-biphenyl-4-carboxyl-7-deacetylpyripyropene A] | 100 to 1000 | + (5 > specific activity > 1)
CC(=O)OCC1(C)C2C[C@H](OC(=O)c3cc4ccccc4s3)[C@@]3(C)Oc4cc(-c5cccnc5)oc(=O)c4[C@H](O)C3[C@@]2(C)CC[C@@H]1OC(C)=O (stereo partly shown) [PRD 035, 7-benzo[b]thiophene-2-carboxyl-7-deacetylpyripyropene A] | 100 to 1000 | + (5 > specific activity > 1)
CC(=O)OCC1(C)C2C[C@H](OC(=O)c3ccc4c(c3)OC(F)(F)O4)[C@@]3(C)Oc4cc(-c5cccnc5)oc(=O)c4[C@H](O)C3[C@@]2(C)CC[C@@H]1OC(C)=O (stereo partly shown) [PRD 036, 7-2,2-difluorobenzo[d][1,3]dioxol-5-carboxyl-7-deacetylpyripyropene A] | 10 to 100 | ++ (10 > specific activity > 5)
CC(=O)OCC1(C)C2C[C@H](OC(=O)c3ccc4ccccc4c3)[C@@]3(C)Oc4cc(-c5cccnc5)oc(=O)c4[C@H](O)C3[C@@]2(C)CC[C@@H]1OC(C)=O (stereo partly shown) [PRD 037, 7-2-naphthoyl-7-deacetylpyripyropene A] | 100 to 1000 | + (5 > specific activity > 1)
CC(=O)OCC1(C)C2C[C@H](OC(=O)c3cccc4ccccc34)[C@@]3(C)Oc4cc(-c5cccnc5)oc(=O)c4[C@H](O)C3[C@@]2(C)CC[C@@H]1OC(C)=O (stereo partly shown) [PRD 038, 7-1-naphthoyl-7-deacetylpyripyropene A] | 10 to 100 | ++ (10 > specific activity > 5)
CC12COC(c3ccccc3)O[C@H]1CC[C@@]1(C)C2C[C@H](OC(=O)c2ccccc2C#N)[C@@]2(C)Oc3cc(-c4cccnc4)oc(=O)c3[C@H](O)C12 (stereo partly shown) [PRD 039, 1,11-O-benzylidene-7-O-o-cyanobenzoyl-1,7,11-trideacetylpyripyropene A] |  | +++ (50 > specific activity > 10)
CC12COC(c3ccccc3)O[C@H]1CC[C@@]1(C)C2C[C@H](OC(=O)c2cccc(C#N)c2)[C@@]2(C)Oc3cc(-c4cccnc4)oc(=O)c3[C@H](O)C12 (stereo partly shown) [PRD 040, 1,11-O-benzylidene-7-O-m-cyanobenzoyl-1,7,11-trideacetylpyripyropene A] | 10 to 100 | +++ (50 > specific activity > 10)
COc1ccccc1C(=O)O[C@H]1CC2C3(C)COC(c4ccccc4)O[C@H]3CC[C@]2(C)C2[C@@H](O)c3c(cc(-c4cccnc4)oc3=O)O[C@@]21C (stereo partly shown) [PRD 042, 1,11-O-benzylidene-7-O-o-methoxybenzoyl-1,7,11-trideacetylpyripyropene A] | 10 to 100 | +++ (50 > specific activity > 10)
COc1cccc(C(=O)O[C@H]2CC3C4(C)COC(c5ccccc5)O[C@H]4CC[C@]3(C)C3[C@@H](O)c4c(cc(-c5cccnc5)oc4=O)O[C@@]32C)c1 (stereo partly shown) [PRD 043, 1,11-O-benzylidene-7-O-m-methoxybenzoyl-1,7,11-trideacetylpyripyropene A] | 10 to 100 | +++ (50 > specific activity > 10)
COc1ccc(C(=O)O[C@H]2CC3C4(C)COC(c5ccccc5)O[C@H]4CC[C@]3(C)C3[C@@H](O)c4c(cc(-c5cccnc5)oc4=O)O[C@@]32C)cc1 (stereo partly shown) [PRD 044, 1,11-O-benzylidene-7-O-p-methoxybenzoyl-1,7,11-trideacetylpyripyropene A] | 10 to 100 | +++ (50 > specific activity > 10)
CC12COC(c3ccccc3)O[C@H]1CC[C@@]1(C)C2C[C@H](OC(=O)c2ccc([N+](=O)[O-])cc2)[C@@]2(C)Oc3cc(-c4cccnc4)oc(=O)c3[C@H](O)C12 (stereo partly shown) [PRD 045, 1,11-O-benzylidene-7-O-p-nitrobenzoyl-1,7,11-trideacetylpyripyropene A] | 10 to 100 | ++ (10 > specific activity > 5)
CC12COC(c3ccccc3)O[C@H]1CC[C@@]1(C)C2C[C@H](OC(=O)c2ccccc2F)[C@@]2(C)Oc3cc(-c4cccnc4)oc(=O)c3[C@H](O)C12 (stereo partly shown) [PRD 046, 1,11-O-benzylidene-7-O-o-fluorobenzoyl-1,7,11-trideacetylpyripyropene A] | 10 to 100 | +++ (50 > specific activity > 10)
